“Also recorded” adds a separate entry of the source. Read-outs that look alike come from different tables or passages of the source.
Columns and labels:
[1] = system: SH-SY5Y cells; test: H2O2 induced apoptosis, Annexin V / PI FACS assay; assay type: cell-based, human; details: for total amount of apoptotic cells: 50 μM for 96 hours, then 400 μM H2O2 for 24 hours
Method: Apoptosis assays and PINK1 shRNA: SH-SY5Y cells (ATCC) were cultured in 1:1 mix of F12K and DMEM supplemented with 20% FBS. PINK1 shRNA lentivirus were produced using a pLKO.1 based shRNA (Sigma) by contransfection with Δ8.9 and pMGD2 vectors in HEK293T cells. SH-SY5Y cells were infected with lentivirus followed by selection with puromycin ([…]). […] Subsequently, cells were stained with Annexin V-FITC and PI and analyzed (FACS Diva) on a FACS LSRII Cytometer ([…]) Apoptosis was calculated as the difference between H2O2 treated samples and the respective control.
Overexpression of PINK1 in neuronal cells (e.g. dopaminergic (DA)) promotes survival in response to oxidative stress and other mitochondrial toxins^7. Before testing the effects of kinetin on apoptosis, we treated DA neurons with 50 μM of either kinetin or adenine and measured cell density after 10 days. […] SH-SY5Y cells were treated with 50 μM kinetin, adenine or DMSO for 96 hours, followed by 400 μM H2O2 treatment for additional 24 hours. Using a cytometry-based FACS assay involving cellular annexin V and propidium iodide staining, we determined the percentage of apoptotic cells after treatment with DMSO, adenine or kinetin.

[2] = system: PINK1−/− mice; test: Heart health and performance in mice treated from birth; assay type: in vivo
Method: PINK1 expression is protective in several mouse models of heart failure. PINK1wt expression will block pathological hypertrophy, increase heart fractional shortening, and prevent ischemia induced death of heart tissue. To assay the effect of kinetin PINK1 wt or PINK1−/− mice were treated with vehicle, adenine or kinetin from birth following published protocols for administration of kinetin (Hims et al., 2007; Shetty et al., 2011). The mice were sacrificed and whole hearts analyzed, and isolated cardiomyocytes from mice at appropriate time periods (e.g. 2 and 6 months). O2 consumption, mitochondrial integrity (mtDNA abundance, mitochondrial capacity and JC-1 fluorescence) caspase 3/7 cleavage activity and TUNEL staining were measured to assess the health of these tissues. According to published results (Billia et al., 2011; Chen and Dorn, 2013), PINK1 activity is essential for normal 02 consumption and maintenance of mitochondrial integrity. Decreased 02 consumption and mitochondrial integrity in PINK1−/− mice was compared to PINK1wt mice. […] Additionally, caspase 3/7 cleavage activity and TUNEL staining of the left ventricle were increased in PINK1−/− mice derived cardiomyocytes compared to PINK1wt.
In addition to these analyses we analyzed the performance of the heart in whole animals. We utilized the same procedure as above and treated either PINK1wt or PINK1−/− mice with vehicle, adenine or kinetin from birth following published protocols for administration of kinetin (Hims et al., 2007; Shetty et al., 2011). […] These characteristics of pathological hypertrophy indicate heart failure in the PINK1−/− mice will not increase as dramatically in PINK1wt mice (Billia et al., 2011). […] These experiments indicate that amplification of PINK1 activity by treatment with kinetin can block age-induced loss in heart function.

[3] = system: rat hippocampal neurons; test: Mitochondrial motility assay in axons; assay type: cell-based; details: 50 μM
Excerpt: (§1) Mitochondrial motility assay: Primary hippocampal neuronal cultures were co-transfected with mitochondrial targeted GFP (mitoGFP) and mCherry-tagged synaptophysin (mCherrySynaptophysin) to allow for the live identification of mitochondria in axons.
(§2) To test if kinetin decreases motility we examined the mobility of axonal mitochondria in hippocampal neurons. Primary hippocampal neuronal cultures were co-transfected with mitoGFP and mCherry-tagged Synaptophysin (mCherrySynaptophysin) to allow for the live identification of mitochondria in axons. […] To test the PINK1 dependency of this process, we treated control mouse C57 (PINK1 wildtype) and PINK1 knockout derived hippocampal neurons with kinetin or 9MK and imaged their mitochondria.

[4] = system: C57 (PINK1 wildtype) derived hippocampal neurons; test: Mitochondrial motility assay in axons; assay type: cell-based, mouse
Excerpt: as §1, §2

[5] = system: PINK1 knockout derived hippocampal neurons; test: Mitochondrial motility assay in axons; assay type: cell-based, mouse
Excerpt: as §1, §2

[6] = system: SH-SY5Y; assay type: in vitro ADME; details: not told
Excerpt: We included negative control analogs of Kinetin which prevent metabolism.

[7] = system: Parkin and Bcl-xL; test: Phosphorylation level of Parkin and Bcl-xL in neuronal cell lines; assay type: cell-based
Excerpt: (§3) Kinetin mediated PINK1 activity amplification was characterized using a variety of cell lines and primary cells. The HL-1 cell line, an established cardiomyocyte cell line that retains characteristic properties of differentiated cardiac tissue (Claycomb et al., 1998) as well as freshly isolated cardiomyocytes from PINK1wt or PINK1−/− mice. Infected HL-1 cells with a lentivirus expressing shRNA targeting PINK1, were developed to generate a PINK1 knockdown control. To analyze the amplification of PINK1 kinase activity we analyzed the phosphorylation level of Bcl-xL, Mfn2, and Parkin following treatment of PINK1wt and PINK1 knockdown or −/− cell lines with DMSO or 25 μM adenine, kinetin or 9-methyl kinetin (9MK negative control) and fCCCP for three to twenty-four hours following published protocols (Arena et al., 2013; Chen and Dorn, 2013; Kondapalli et al., 2012). […] Accordingly, PINK1wt expressing cells see an increase in PINK1 dependent phosphorylation, but not in those cells where PINK1 has been depleted.

[8] = system: PINK1wt HL-1 cells or cardiomyocytes derived from PINK1wt mice; test: Apoptosis of cardiomyocytes after mitochondrial toxins (caspase 3/7, TUNEL, Annexin V); assay type: cell-based; details: 25 μM, versus control compounds or PINK1 knockdown or −/− cells
Excerpt: as §3
The amount of early apoptosis was measured using caspase 3/7 cleavage activity and later stage apoptosis by measuring the number of Terminal deoxynucleotidyl transferase dUTP nick end labeling (TUNEL) positive cells and Annexin V binding by FACS analysis following treatment with mitochondrial toxins. […]

[9] = system: PINK1wt mice; test: Induced myocardial infarction model; assay type: in vivo; details: two weeks dosing
Method: Utilizing mice dosed with kinetin, adenine or vehicle for two weeks, we induced myocardial infarction by ligating the left anterior descending artery at the level of the left atrial appendage (Wang et al., 2006) or sham surgery. Following infarct for 24 or 72 hours, we sacrificed the mice and analyzed the heart by TUNEL staining as cardiomyocytes are susceptible to cell death following infarct. […] These experiments replicate our results in neurons in which kinetin treatment will block apoptosis in response to a number of cellular stressors.

| SMILES | total amount of apoptotic cells [1] | age induced pathological hypertrophy [2] | mitochondrial movement / motility ([3]; 48 hours pre-treatment) | velocity of mitochondria that remain in motion ([3]; 48 hours, retrograde direction) | mitochondrial motility [4] | mitochondrial motility [5] | mitochondrial motility ([5]; listed as Kinetin) | total amount of apoptotic cells ([1]; listed as Kinetin) | total number of apoptotic cells ([1]; 48 hours of treatment, then 24 hours of 400 uM hydrogen peroxide) | membrane impermeable metabolite after incubation [6] | phosphorylation level of Parkin and Bcl-xL [7] | apoptosis levels [8] | TUNEL positive cells in the peri-infarct area ([9]; 24 or 72 hours after infarct) | scar size and level of collagen deposition ([9]; post-infarct) |
| --- | --- | --- | --- | --- | --- | --- | --- | --- | --- | --- | --- | --- | --- | --- |
| Nc1ncnc2nc[nH]c12 [adenine, reference compound] | no significant change | no effect |  |  |  |  |  |  |  |  |  |  |  |  |
| c1coc(CNc2ncnc3[nH]cnc23)c1 [kinetin] | significant decrease; also recorded: blocks apoptosis | no effect | potently and specifically inhibited | slows; also recorded: decrease in the velocity of mitochondria in the retrograde direction | decrease in motility | no change in motility | no effect on mitochondrial motility | blocks apoptosis | Decrease in the total number of apoptotic cells | presence of a membrane impermeable metabolite | significant increase | significantly lower levels | significant decrease in TUNEL positive cells | significant decrease in the scar size and the level of collagen deposition |
